Data: patent US12240870B2, “Sequencing method for CAR T cell therapy” (Purdue Research Foundation, priority 2018, dated 2025)
“Also recorded” adds a separate entry of the source.

Columns and labels:
FRα (KB) = biological target: T1, FRα (KB) (Homo sapiens, UniProt P15328); experiment: 3H-EC17 cell-based radioligand binding assay on KB cells; conditions: 2 h at 37° C.
T1 construct: endogenous in cells; host or cells: KB cells
Experimental: FIG. 10, Panel A: Kd values of ^3H-EC17 uptake by FR+ target cells after a 2 hour incubation at 37° C. (calculated from the numbers of molecules bound per cell). Panel B: Kd value of ^3H^−EC17 uptake by E2-CAR-T cells (˜24% EGFRt+, ˜95:5 CD8/CD4 ratio) after a 2 hour incubation at room temperate (calculated from total cell-associated radioactivity, DPM).
The bispecific affinities of EC17 CAM (a CAM is equivalent to a “bridge” or the “compound” in this application) were assessed using ^3H-EC17 in cell-based radioligand binding assays. […] The whole cell lysates were quantitated for the level of radioactivity and cellular protein content by standard Pierce BCA protein assay. The number of ^3H-EC17 molecules bound per cell was calculated to determine the dissociation constants (Kd) for FRα (KB) and FRβ (CHO-β) respectively (FIG. 10).
The EC17 has already been tested in the clinic for immunotherapy and optical imaging purposes. To directly quantify its bispecific binding affinities, ^3H-EC17 was synthesized and radioligand binding assays were carried out on KB and CHO-β cell lines representing FRα+ and FRβ+ target cells, respectively, and on unsorted EGFRt CAR-T cells representing the effector cells.

THP1-FRβ xenografts = experiment: THP1-FRβ AML intravenous xenograft, E2 CAR-T cells plus EC17; assay type: in vivo, NSG mice
Experimental: Panel A: Schematic diagrams to show dose scheduling of EC17 plus unsorted EGFRt CAR-T cells (˜6 million, day 0) in NSG mice with 1-day-old intravenous THP1-FRβ xenografts. Starting 3 days after CAR-T cell injection, EC17 was dosed in 3 different ways: EC17 SIW 500 nmol/kg ([…] on days 3, 10, 17, 24, 31, and 38), EC17 TIW 5/50/500 nmol/kg (3 repeats of 5/50/500 nmol/kg on Monday/Wednesday/Friday followed by a 9-day break, i.e. on days 3/5/7, 17/19/21 and 31/33/35), or EC17 M/Th/M_dose escalation on Monday/Thursday/Monday (3 escalation cycles at 5/10/100 nmol/kg in Cycle 1, 5/30/300 nmol/kg in Cycle 2, and 5/50/500 nmol/kg in Cycle 3, i.e. on days 3/6/10, 17/20/24, and 31/34/38). Panel B: Measurements of change in body weight (n=5). Panel C: Circulating CAR-T cells as human CD3ε+ EGFRt+ events found per 100 μL of mouse whole blood on a logarithmic scale on day 31. Panel D: Left bar graph: circulating tumor cells (GFP+) per 100 μL of whole blood in all cohorts measured at the end of study (day 39); Middle bar graph: THP1-FRβ infiltrated liver weights representing liver metastatic burden; Right bar graph: total tumor weights of all non-liver macrometastases. Panel E: Flow cytometric analysis of T-cell exhaustion markers, PD1, LAG3, TIM3, on preinfusion CAR-T cell product (triple-negative) and tumor-infitrating CAR-T cells isolated from liver metastases. A cardinal feature of fully exhausted T cells is co-expression of multiple inhibitory receptor markers (i.e. triple-positive).
One objective of this E2-CAR T-cell study was to test EC17/E2 CAR-T cell activity and related toxicity (e.g. sCRS) using multiple dosing regimens starting 3 days after CAR-T infusion. Three different EC17 dosing regimens include (a) once-a-week (SIW) at 500 nmol/kg, (b) “TIW-like” at 5, 50, and 500 nmol/kg on Monday/Wednesday/Friday with 9-day intervals, and (c) “TIW-like” at […] on Monday/Thursday/Monday with 7-day intervals.
THP-1-FRβ AML tumor cells were grown in folate-deficient RPMI 1640 with 5-10% FBS at 37° C. in a 5% CO2 humidified atmosphere. THP-1-FRβ tumor cells in serum-free folate-deficient RPMI1640 medium were i.v. injected at 5×10^6 cells per animal.
Anti-FITC E2 scFv-CAR T cells were frozen in a T-cell freezing medium. Upon arrival, vials of frozen CAR-T cells were immediately stored at −80° C. The CAR-T cells were quickly thawed at 37° C., washed twice with CAR-T cell culture medium, and used for animal injection at 6 million viable EGFRt+ E2 CAR-T cells (CD4/CD8 at ˜1:1) per animal. A small aliquot was taken on the day infusion for flow cytometric analysis of E2-CAR T-cell phenotypes.
EC17 and bis-EDA-FITC dosing solutions were prepared when dosing began by weighing appropriate amounts of each compound, reconstituting in PBS, pH 7.4, sterile filtering the drug solution through a 0.22 μm PVDF syringe filter, and freezing aliquots for each day of dosing at −20° C.
All EC17 doses were given towards the end of day (3-4 PM) to allow potential CRS (cytokine release syndrome) to develop overnight. In the following morning, animals were scored according to a CRS grading system (see below).
Daily body weight measurement on the days after EC17 dose is required. Attention was given to gross animal morphology and behavior. Euthanasia was performed if mice lose a lot of weight in a short duration or when mice are approaching moribund conditions per CRS grading system or neurotoxicity.
Whole blood cell analysis: Plasma was removed from predetermined volumes of whole EDTA treated blood and RBCs were lysed with RBC lysis solution. […]

T1 sequence (P15328 25-234): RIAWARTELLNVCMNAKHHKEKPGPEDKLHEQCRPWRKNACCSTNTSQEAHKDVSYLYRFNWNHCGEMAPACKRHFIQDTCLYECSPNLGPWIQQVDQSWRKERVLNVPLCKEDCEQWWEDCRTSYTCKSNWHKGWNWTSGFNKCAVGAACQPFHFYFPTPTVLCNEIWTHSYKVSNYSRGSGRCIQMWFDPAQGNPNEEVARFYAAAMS

With `Nc1nc2ncc(CNc3ccc(C(=O)N[C@@H](CCC(=O)NCCNC(=S)Nc4ccc(-c5c6ccc(=O)cc-6oc6cc(O)ccc56)c(C(=O)O)c4)C(=O)O)cc3)nc2c(=O)[nH]1` [EC17, FA-(γ)-ethylenediamine-FITC] the Kd (FRα (KB)) was 1.7 nM, the non-liver macrometastases (THP1-FRβ xenografts; EC17 SIW 500 nmol/kg) was “successfully controlled non-liver macrometastases” and the CRS grade (THP1-FRβ xenografts; EC17 SIW 500 nmol/kg (Cohort 3)) was 1-2. The non-liver macrometastases (THP1-FRβ xenografts; EC17 TIW 5/50/500 nmol/kg on/off) was “successfully controlled non-liver macrometastases”, the “overall anti-tumor activity / THP1-FRβ tumor burden, comparison of regimens” value (THP1-FRβ xenografts; EC17 TIW 5/50/500 nmol/kg on/off (Cohort 4)) was “best anti-tumor activity among the three different EC17 dose schedules; also recorded: trended to be the best regimen for reducing overall THP1-FRβ tumor burden” and the “circulating THP1-FRβ tumor cells (GFP+) per 100 μL whole blood” value (THP1-FRβ xenografts; all three EC17 dosing regimens, day 39) was “significant reduction in circulating THP1 cell burden; also recorded: effectively reduced circulating THP1-FRβ tumor cells in the blood”. For the same compound, the “severe CRS (grades ≥3)” value (THP1-FRβ xenografts; any EC17 treated cohort (SIW, TIW, M/Th/M)) was “no severe CRS”, the body weight loss (THP1-FRβ xenografts; ~6 million E2 CAR-T + EC17 SIW 500 nmol/kg (Cohort 3)) was “EC17 dose-dependent body weight loss after each EC17 dose; also recorded: some body weight loss” and the body weight loss (THP1-FRβ xenografts; ~6 million E2 CAR-T + EC17 TIW 5/50/500 nmol/kg M/W/F, 9-day break (Cohort 4)) was “mildest body weight loss among three treatment groups; also recorded: least body weight loss”.
